What was measured:
hERG (KCNH2) = hERG (KCNH2) (Homo sapiens, UniProt Q12809); assay: Inhibition of human ERG at 1 uM
Glucocorticoid receptor [1] = target: T1, Glucocorticoid receptor (Homo sapiens, UniProt P04150); assay: Agonist activity at glucocorticoid receptor in human fibroblast assessed as inhibition of IL-1-beta-induced IL6 production treated 1 hr before IL1-beta challenge measured after 24 hrs by transrepression assay; assay type: functional
T1 sequence (P04150 whole entry): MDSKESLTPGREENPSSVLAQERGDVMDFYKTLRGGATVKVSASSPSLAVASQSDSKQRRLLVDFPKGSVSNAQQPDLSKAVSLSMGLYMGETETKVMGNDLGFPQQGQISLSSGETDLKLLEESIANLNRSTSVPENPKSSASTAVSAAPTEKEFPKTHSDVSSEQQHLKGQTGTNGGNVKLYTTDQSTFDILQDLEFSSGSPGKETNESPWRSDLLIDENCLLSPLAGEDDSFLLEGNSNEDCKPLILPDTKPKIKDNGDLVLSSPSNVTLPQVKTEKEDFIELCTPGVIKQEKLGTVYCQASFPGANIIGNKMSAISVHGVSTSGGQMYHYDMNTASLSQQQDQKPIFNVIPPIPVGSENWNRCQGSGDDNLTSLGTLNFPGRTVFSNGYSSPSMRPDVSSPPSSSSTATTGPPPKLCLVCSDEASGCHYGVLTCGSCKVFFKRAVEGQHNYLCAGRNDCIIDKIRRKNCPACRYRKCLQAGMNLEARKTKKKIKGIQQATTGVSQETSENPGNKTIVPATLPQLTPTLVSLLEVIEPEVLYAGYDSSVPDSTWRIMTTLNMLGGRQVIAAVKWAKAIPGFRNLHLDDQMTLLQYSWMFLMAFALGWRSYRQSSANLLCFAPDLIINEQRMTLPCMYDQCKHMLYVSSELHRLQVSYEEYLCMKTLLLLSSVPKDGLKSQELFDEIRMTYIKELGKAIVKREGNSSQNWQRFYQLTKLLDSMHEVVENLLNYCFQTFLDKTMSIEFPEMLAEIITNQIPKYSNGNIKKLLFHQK

Glucocorticoid receptor [2] = target: T1, Glucocorticoid receptor; assay: Agonist activity at glucocorticoid receptor in human MDA-kb2 cells transfected with MMTV-LUC assessed as induction of MMTV-LTR/promoter linked LUC gene by luciferase transactivation assay; assay type: functional, cell-based
[3] = target: Voltage-gated inwardly rectifying potassium channel KCNH2 (Homo sapiens, UniProt Q12809); assay: Inhibition of human ERG by patch clamp method
Glucocorticoid receptor [4] = target: T1, Glucocorticoid receptor
Description: Binding affinity to human glucocorticoid receptor by fluorescence polarization competitive binding assay

[5] = Inhibition of NMDA receptor at 1 uM
[6] = target: Histamine H1 receptor (Homo sapiens) (UniProt P35367); assay: Inhibition of histamine H1 receptor at 1 uM
Chain of Histamine H1 receptor (Homo sapiens) (P35367 whole entry): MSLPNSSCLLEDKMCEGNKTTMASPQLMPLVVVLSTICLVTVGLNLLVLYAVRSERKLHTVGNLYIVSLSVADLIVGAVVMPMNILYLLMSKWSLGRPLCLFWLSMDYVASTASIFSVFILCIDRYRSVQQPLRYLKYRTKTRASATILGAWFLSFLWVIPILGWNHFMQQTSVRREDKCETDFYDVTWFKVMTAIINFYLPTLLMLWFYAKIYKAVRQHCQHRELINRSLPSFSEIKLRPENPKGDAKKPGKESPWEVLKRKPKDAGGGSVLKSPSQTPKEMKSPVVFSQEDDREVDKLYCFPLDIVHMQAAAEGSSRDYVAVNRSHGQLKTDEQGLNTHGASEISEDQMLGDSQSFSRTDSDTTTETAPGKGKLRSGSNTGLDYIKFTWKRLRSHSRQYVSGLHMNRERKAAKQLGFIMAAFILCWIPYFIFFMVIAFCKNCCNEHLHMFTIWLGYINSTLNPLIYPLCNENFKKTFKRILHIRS

[7] = Inhibition of central imidazoline I2 receptor at 1 uM
[8] = target: T2, Muscarinic acetylcholine receptor M2 (Homo sapiens) (UniProt P08172); assay: Inhibition of muscarinic M2 receptor at 1 uM
T2 sequence (whole entry): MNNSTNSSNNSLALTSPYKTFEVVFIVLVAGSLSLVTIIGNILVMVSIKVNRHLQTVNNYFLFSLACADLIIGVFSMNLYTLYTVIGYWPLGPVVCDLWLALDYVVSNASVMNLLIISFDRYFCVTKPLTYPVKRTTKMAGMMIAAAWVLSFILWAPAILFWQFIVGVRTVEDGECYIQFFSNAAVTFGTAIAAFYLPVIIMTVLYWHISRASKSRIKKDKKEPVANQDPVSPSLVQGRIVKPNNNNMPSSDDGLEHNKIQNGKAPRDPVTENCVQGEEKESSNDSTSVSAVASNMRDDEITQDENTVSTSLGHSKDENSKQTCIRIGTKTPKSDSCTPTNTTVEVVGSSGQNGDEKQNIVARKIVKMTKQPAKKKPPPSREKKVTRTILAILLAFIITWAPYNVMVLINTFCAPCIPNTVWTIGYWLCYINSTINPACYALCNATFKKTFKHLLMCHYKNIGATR

[9] = target: Muscarinic acetylcholine receptor M3 (Homo sapiens) (UniProt P20309); assay: Inhibition of muscarinic M3 receptor at 1 uM
Chain of Muscarinic acetylcholine receptor M3 (Homo sapiens) (P20309 whole entry, looked up): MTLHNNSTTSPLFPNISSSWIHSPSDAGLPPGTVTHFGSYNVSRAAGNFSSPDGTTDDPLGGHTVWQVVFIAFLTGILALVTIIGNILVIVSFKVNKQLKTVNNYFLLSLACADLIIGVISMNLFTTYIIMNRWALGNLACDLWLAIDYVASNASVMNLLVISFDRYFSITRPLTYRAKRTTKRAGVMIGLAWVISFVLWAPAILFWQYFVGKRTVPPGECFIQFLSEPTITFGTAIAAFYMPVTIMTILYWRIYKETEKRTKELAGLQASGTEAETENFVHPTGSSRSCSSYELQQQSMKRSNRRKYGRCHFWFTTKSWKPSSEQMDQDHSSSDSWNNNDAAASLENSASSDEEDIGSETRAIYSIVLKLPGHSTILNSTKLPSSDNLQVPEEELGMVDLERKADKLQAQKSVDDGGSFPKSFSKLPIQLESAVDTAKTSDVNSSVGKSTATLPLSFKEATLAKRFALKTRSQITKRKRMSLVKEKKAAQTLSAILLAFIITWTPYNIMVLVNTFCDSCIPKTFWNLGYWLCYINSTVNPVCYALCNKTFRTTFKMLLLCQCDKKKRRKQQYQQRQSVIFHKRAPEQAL

[10] = Inhibition of nicotinic acetylcholine receptor at 1 uM
[11] = Inhibition of nicotinic bungarotoxin-sensitive acetylcholine receptor at 1 uM
[12] = target: Mu-type opioid receptor (Homo sapiens) (UniProt P35372); assay: Inhibition of mu opioid receptor at 1 uM
Chain of Mu-type opioid receptor (Homo sapiens) (P35372 whole entry): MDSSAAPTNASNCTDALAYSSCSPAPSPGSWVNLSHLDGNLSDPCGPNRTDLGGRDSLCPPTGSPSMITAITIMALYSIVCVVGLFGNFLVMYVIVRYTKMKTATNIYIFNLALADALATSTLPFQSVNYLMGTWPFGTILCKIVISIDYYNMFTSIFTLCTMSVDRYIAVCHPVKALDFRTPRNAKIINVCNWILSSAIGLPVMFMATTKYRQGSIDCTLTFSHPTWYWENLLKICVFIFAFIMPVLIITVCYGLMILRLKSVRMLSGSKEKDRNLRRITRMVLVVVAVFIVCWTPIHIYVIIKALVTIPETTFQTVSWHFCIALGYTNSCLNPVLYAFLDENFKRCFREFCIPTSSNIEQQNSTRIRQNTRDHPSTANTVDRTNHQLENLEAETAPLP

[13] = Inhibition of ATP-sensitive potassium channel at 1 uM
[14] = target: Prostaglandin E2 receptor EP4 subtype (Homo sapiens) (UniProt P35408); assay: Inhibition of prostanoid EP4 receptor at 1 uM
Chain of Prostaglandin E2 receptor EP4 subtype (Homo sapiens) (P35408 whole entry): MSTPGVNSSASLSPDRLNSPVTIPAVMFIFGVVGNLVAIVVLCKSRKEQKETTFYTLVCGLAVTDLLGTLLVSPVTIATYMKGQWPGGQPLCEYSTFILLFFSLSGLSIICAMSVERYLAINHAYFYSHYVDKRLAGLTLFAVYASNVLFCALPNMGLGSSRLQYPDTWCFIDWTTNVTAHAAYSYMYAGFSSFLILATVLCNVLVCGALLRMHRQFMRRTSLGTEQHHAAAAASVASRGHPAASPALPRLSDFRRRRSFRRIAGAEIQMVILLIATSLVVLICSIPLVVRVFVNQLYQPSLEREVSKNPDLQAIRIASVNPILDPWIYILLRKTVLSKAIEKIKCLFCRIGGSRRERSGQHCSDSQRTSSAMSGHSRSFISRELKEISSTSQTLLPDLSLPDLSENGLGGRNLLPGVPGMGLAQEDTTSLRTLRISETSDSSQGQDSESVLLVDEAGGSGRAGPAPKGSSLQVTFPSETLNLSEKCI

[15] = Inhibition of rolipram binding site at 1 uM
[16] = target: Sigma non-opioid intracellular receptor 1 (Homo sapiens) (UniProt Q99720); assay: Inhibition of sigma 1 receptor at 1 uM
[17] = Inhibition of sigma 2 receptor at 1 uM
[18] = Inhibition of sodium channel site 2 at 1 uM
[19] = target: Sodium-dependent noradrenaline transporter (Homo sapiens) (UniProt P23975); assay: Inhibition of norepinephrine transporter at 1 uM
Chain of Sodium-dependent noradrenaline transporter (Homo sapiens) (P23975 whole entry): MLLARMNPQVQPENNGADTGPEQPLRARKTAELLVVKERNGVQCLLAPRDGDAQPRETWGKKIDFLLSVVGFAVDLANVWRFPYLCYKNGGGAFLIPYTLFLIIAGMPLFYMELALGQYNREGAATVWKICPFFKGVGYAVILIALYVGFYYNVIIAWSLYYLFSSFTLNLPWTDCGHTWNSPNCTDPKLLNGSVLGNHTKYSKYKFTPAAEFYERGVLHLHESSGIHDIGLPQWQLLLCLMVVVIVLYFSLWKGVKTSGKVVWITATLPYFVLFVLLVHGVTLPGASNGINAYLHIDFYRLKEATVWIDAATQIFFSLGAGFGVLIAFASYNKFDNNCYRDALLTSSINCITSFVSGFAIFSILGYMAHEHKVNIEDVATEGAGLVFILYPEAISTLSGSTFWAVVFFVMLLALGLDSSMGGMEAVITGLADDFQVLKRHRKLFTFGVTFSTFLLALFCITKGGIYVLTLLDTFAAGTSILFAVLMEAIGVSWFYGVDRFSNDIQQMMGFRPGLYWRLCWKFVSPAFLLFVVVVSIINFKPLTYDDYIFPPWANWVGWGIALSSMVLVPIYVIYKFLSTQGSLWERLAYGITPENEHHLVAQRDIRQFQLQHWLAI

[20] = Inhibition of phorbol ester site of PKC at 1 uM
[21] = Inhibition of phencyclidine receptor at 1 uM
[22] = Selectivity for human glucocorticoid receptor over ERalpha
[23] = Selectivity for human glucocorticoid receptor over ERbeta
[24] = Selectivity for human glucocorticoid receptor over progesterone receptor
[25] = Selectivity for human glucocorticoid receptor over androgen receptor
[26] = target: Beta-1 adrenergic receptor (Homo sapiens) (UniProt P08588); assay: Inhibition of adrenergic beta-1 receptor at 1 uM
Chain of Beta-1 adrenergic receptor (Homo sapiens) (P08588 whole entry, looked up): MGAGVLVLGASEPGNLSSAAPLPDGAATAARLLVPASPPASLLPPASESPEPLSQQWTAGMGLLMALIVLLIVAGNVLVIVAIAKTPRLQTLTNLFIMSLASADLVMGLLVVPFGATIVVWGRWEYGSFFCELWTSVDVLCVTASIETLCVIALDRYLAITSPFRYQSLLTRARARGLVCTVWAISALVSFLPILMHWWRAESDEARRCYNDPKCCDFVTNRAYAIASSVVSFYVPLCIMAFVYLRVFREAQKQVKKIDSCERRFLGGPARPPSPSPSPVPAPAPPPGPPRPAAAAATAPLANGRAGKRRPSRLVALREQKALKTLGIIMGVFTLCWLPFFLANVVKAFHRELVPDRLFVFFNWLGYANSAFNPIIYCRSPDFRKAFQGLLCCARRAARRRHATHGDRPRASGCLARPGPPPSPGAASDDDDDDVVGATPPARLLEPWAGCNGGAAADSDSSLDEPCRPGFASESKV

[27] = target: T3, Adenosine receptor A1 (Homo sapiens) (UniProt P30542); assay: Inhibition of adenosine A1 receptor at 1 uM
T3 sequence (whole entry): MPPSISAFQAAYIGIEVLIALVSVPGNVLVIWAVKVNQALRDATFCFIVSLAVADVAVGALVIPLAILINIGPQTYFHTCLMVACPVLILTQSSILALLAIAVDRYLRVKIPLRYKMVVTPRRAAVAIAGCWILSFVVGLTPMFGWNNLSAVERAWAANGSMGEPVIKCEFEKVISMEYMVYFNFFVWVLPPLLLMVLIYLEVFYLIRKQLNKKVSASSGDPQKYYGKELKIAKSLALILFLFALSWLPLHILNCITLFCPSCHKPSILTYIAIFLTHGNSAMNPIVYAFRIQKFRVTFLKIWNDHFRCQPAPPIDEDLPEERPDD

[28] = target: Adenosine receptor A2a (Homo sapiens) (UniProt P29274); assay: Inhibition of adenosine A2A receptor at 1 uM
Chain of Adenosine receptor A2a (Homo sapiens) (P29274 whole entry): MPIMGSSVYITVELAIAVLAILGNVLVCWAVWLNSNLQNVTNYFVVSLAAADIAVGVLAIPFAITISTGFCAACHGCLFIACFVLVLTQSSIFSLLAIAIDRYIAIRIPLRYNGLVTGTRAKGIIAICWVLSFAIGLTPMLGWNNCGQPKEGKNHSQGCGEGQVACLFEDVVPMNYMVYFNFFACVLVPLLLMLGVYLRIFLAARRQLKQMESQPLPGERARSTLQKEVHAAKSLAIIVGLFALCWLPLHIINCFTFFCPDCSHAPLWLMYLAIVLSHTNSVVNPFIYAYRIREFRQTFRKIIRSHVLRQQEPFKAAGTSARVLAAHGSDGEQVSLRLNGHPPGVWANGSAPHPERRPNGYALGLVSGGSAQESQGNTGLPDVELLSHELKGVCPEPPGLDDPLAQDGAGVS

[29] = target: T4, Alpha-1A adrenergic receptor (Homo sapiens) (UniProt P35348); assay: Inhibition of adrenergic alpha1A receptor at 1 uM
T4 sequence (whole entry): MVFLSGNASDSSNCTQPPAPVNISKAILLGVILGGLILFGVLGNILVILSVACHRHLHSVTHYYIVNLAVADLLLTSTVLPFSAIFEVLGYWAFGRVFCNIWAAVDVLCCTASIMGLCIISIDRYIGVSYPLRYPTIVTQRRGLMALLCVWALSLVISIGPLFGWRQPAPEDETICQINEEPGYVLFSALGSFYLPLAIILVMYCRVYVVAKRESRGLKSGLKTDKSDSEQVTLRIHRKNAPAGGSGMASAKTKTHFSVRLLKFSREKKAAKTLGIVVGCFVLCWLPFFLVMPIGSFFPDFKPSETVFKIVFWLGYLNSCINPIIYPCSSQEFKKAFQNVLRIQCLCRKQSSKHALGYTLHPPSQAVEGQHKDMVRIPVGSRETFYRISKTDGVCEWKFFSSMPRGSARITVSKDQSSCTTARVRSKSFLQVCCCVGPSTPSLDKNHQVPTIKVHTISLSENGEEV

[30] = target: T5, Alpha-1B adrenergic receptor (Homo sapiens) (UniProt P35368); assay: Inhibition of adrenergic Alpha-1B receptor at 1 uM
T5 sequence (whole entry): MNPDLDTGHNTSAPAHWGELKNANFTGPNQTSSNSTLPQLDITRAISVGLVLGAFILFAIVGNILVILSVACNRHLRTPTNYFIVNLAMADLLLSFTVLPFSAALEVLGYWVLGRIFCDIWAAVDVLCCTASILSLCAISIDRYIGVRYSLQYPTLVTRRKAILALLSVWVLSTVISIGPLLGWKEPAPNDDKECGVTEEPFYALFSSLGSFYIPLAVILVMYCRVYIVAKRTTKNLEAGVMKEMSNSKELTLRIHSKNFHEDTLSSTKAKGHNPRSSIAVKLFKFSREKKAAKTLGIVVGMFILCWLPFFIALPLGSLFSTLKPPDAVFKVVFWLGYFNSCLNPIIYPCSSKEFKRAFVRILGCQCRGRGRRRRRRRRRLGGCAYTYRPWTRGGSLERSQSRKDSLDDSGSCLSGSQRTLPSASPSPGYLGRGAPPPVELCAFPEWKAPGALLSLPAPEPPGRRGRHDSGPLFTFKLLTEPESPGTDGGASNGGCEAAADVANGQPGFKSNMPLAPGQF

[31] = target: T6, Alpha-2A adrenergic receptor (Homo sapiens) (UniProt P08913); assay: Inhibition of adrenergic alpha2A receptor at 1 uM
T6 sequence (whole entry): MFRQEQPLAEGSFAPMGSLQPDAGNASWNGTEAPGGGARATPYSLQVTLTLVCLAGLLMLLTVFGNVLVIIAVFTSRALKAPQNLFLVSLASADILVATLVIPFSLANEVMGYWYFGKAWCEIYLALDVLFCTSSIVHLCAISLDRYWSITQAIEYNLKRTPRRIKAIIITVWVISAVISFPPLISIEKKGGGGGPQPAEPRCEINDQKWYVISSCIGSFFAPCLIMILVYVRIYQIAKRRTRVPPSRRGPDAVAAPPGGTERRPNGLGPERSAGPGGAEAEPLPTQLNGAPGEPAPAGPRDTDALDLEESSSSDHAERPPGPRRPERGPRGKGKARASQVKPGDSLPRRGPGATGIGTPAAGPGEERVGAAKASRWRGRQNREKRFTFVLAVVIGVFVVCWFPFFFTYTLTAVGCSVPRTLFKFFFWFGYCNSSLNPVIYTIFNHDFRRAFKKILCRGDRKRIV

[32] = target: Beta-2 adrenergic receptor (Homo sapiens) (UniProt P07550); assay: Inhibition of adrenergic beta2 receptor at 1 uM
Chain of Beta-2 adrenergic receptor (Homo sapiens) (P07550 whole entry, looked up): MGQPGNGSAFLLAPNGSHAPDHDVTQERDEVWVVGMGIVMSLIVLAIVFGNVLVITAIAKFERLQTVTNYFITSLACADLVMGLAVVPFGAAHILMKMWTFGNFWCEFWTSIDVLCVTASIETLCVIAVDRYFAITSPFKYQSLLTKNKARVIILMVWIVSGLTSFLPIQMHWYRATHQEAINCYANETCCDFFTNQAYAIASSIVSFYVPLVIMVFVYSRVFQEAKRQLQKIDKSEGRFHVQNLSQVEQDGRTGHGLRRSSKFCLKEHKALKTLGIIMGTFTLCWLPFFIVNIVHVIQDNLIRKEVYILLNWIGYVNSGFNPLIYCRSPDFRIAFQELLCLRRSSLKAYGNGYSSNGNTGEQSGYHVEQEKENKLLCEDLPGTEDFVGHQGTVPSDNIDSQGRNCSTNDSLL

[33] = Inhibition of calcium channel L type dihydropyridine binding site at 1 uM
[34] = target: D(1A) dopamine receptor (Homo sapiens) (UniProt P21728); assay: Inhibition of dopamine D1 receptor at 1 uM
Chain of D(1A) dopamine receptor (Homo sapiens) (P21728 whole entry): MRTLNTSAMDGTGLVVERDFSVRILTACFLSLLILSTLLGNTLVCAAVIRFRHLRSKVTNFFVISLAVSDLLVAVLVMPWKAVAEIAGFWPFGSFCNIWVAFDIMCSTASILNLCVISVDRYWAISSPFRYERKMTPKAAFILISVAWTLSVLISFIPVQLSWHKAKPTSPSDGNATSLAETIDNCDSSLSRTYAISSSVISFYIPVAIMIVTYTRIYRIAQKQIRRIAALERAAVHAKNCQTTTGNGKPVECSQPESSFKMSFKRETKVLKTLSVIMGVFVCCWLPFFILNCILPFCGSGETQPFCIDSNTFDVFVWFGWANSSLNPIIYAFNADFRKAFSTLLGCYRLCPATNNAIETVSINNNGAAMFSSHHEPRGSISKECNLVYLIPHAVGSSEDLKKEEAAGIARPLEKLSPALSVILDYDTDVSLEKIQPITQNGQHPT

[35] = target: D(2) dopamine receptor (Homo sapiens) (UniProt P14416); assay: Inhibition of dopamine D2S receptor at 1 uM
Chain of D(2) dopamine receptor (Homo sapiens) (P14416 whole entry): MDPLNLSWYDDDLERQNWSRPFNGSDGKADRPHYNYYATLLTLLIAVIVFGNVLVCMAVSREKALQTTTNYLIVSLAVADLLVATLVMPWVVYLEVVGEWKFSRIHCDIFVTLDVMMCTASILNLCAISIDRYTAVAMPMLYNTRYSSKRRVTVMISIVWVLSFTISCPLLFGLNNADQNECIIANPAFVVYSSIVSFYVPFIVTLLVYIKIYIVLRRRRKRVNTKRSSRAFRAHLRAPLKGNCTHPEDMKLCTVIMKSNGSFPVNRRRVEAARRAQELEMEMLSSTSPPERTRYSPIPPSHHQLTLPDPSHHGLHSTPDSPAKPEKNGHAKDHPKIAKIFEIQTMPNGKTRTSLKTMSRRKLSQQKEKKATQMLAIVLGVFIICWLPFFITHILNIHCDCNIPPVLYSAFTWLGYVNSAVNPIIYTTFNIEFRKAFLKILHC

[36] = Inhibition of GABAA receptor agonist site at 1 uM; assay type: functional
[37] = Inhibition of central benzodiazepine receptor at 1 uM

| Compound | EC50 (Glucocorticoid receptor [1]) | IC50 (Glucocorticoid receptor [4]) | inhibition [5] | inhibition [6] | inhibition [7] | inhibition [8] | inhibition [9] | inhibition [10] | inhibition [11] | inhibition [12] | inhibition [13] | inhibition [14] | inhibition [15] | inhibition [16] | inhibition [17] | inhibition [18] | inhibition [19] | inhibition [20] | inhibition [21] | inhibition [26] | other results |
| --- | --- | --- | --- | --- | --- | --- | --- | --- | --- | --- | --- | --- | --- | --- | --- | --- | --- | --- | --- | --- | --- |
| N#Cc1cc(C(O)(c2ccc3c(cnn3-c3ccc(F)cc3)c2)C(F)(F)F)ccc1F (single isomer, unassigned; (-)) [listing 1 of 2 here] | 112 nM | 54 nM |  |  |  |  |  |  |  |  |  |  |  |  |  |  |  |  |  |  | inhibition at 1 µM (hERG (KCNH2)): < 50%; EC50 (Glucocorticoid receptor [2]; mda-kb2): Not Active; IC50 [3]: > 10000 nM |
| N#Cc1cc(C(O)(c2ccc3c(cnn3-c3ccc(F)cc3)c2)C(F)(F)F)ccc1F (single isomer, unassigned; (-)) [listing 2 of 2 here] |  |  | < 50% | < 50% | < 50% | < 50% | < 50% | < 50% | < 50% | < 50% | < 50% | < 50% | < 50% | < 50% | < 50% | < 50% | < 50% | < 50% | < 50% | < 50% | Ratio [22]: > 1000; Ratio [23]: > 1000; Ratio [24]: > 1000; Ratio [25]: > 1000; inhibition [27]: < 50%; inhibition [28]: < 50%; inhibition [29]: < 50%; inhibition [30]: < 50%; inhibition [31]: < 50%; inhibition [32]: < 50%; inhibition [33]: < 50%; inhibition [34]: < 50%; inhibition [35]: < 50%; inhibition [36]: < 50%; inhibition [37]: < 50% |
| OC(c1ccc(F)c(Cl)c1)(c1ccc2c(cnn2-c2ccc(F)cc2)c1)C(F)(F)F (single isomer, unassigned; (-)) |  |  | < 50% | < 50% | < 50% | < 50% | < 50% | < 50% | < 50% | < 50% | < 50% | < 50% | < 50% | < 50% | < 50% | < 50% | < 50% | < 50% | < 50% | < 50% | inhibition [27]: < 50%; inhibition [28]: < 50%; inhibition [29]: < 50%; inhibition [30]: < 50%; inhibition [31]: < 50%; inhibition [32]: < 50%; inhibition [33]: < 50%; inhibition [34]: < 50%; inhibition [35]: < 50%; inhibition [36]: < 50%; inhibition [37]: < 50% |
| OC(c1ccc(F)c(Cl)c1)(c1ccc2c(cnn2-c2ccc(F)cc2)c1)C(F)(F)F (single isomer, unassigned; (-)) [1-(3-CHLORO-4-FLUOROPHENYL)-2,2,2-TRIFLUORO-1-(1-(4-FLUOROPHENYL)-1H-INDAZOL-5-YL)ETHANOL (ENANTIOMERIC MIX)] | 93 nM | 49 nM |  |  |  |  |  |  |  |  |  |  |  |  |  |  |  |  |  |  | EC50 (Glucocorticoid receptor [2]; read-out: EC50): 1100 nM |

Reference: ChEMBL document CHEMBL1157802, “5-Functionalized indazoles as glucocorticoid receptor agonists” (Bioorg Med Chem Lett, 2010)
